Data taken from patent publication US8293909B2, “Compounds for the treatment of hepatitis C” (Bristol-Myers Squibb Company, priority 2008, dated 2012).

Key:
[1] = target: T1, HCV NS5B RdRp genotype 1b (Hepatitis C virus genotype 1b, UniProt Q9WMX2); experiment: HCV NS5B RdRp enzyme assay (standard / modified); assay type: biochemical; settings: Table 1; HCV NS5B genotype 1b
T1 construct: The protein was expressed with an 18 amino acid C-terminal truncation to enhance the solubility; made in house; host or cells: E. coli BL21(DE3), pET21a vector
Procedure: HCV NS5B RdRp cloning, expression, and purification. The cDNA encoding the NS5B protein of HCV, genotype 1b, was cloned into the pET21a expression vector. The protein was expressed with an 18 amino acid C-terminal truncation to enhance the solubility. The E. coli competent cell line BL21(DE3) was used for expression of the protein. Cultures were grown at 37° C. for ˜4 hours until the cultures reached an optical density of 2.0 at 600 nm. The cultures were cooled to 20° C. and induced with 1 mM IPTG. Fresh ampicillin was added to a final concentration of 50 μg/ml and the cells were grown overnight at 20° C.
Cell pellets (3 L) were lysed for purification to yield 15-24 mgs of purified NS5B. The lysis buffer consisted of 20 mM Tris-HCl, pH 7.4, 500 mM NaCl, 0.5% triton X-100, 1 mM DTT, 1 mM EDTA, 20% glycerol, 0.5 mg/ml lysozyme, 10 mM MgCl2, 15 ug/ml deoxyribonuclease I, and Complete™ protease inhibitor tablets (Roche). After addition of the lysis buffer, frozen cell pellets were resuspended using a tissue homogenizer. To reduce the viscosity of the sample, aliquots of the lysate were sonicated on ice using a microtip attached to a Branson sonicator. The sonicated lysate was centrifuged at 100,000×g for 1 hr at 4° C. and filtered through a 0.2 μm filter unit (Corning).
The protein was purified using three sequential chromatography steps: Heparin sepharose CL-6B, polyU sepharose 4B, and Hitrap SP sepharose (Pharmacia). The chromatography buffers were identical to the lysis buffer but contained no lysozyme, deoxyribonuclease I, MgCl2 or protease inhibitor and the NaCl concentration of the buffer was adjusted according to the requirements for charging the protein onto the column. Each column was eluted with a NaCl gradient which varied in length from 5-50 column volumes depending on the column type. After the final chromatography step, the resulting purity of the enzyme is >90% based on SDS-PAGE analysis. The enzyme was aliquoted and stored at −80° C.
Standard HCV NS5B RdRp enzyme assay. HCV RdRp genotype 1b assays were run in a final volume of 60 μl in 96 well plates (Costar 3912). The assay buffer is composed of 20 mM Hepes, pH 7.5, 2.5 mM KCl, 2.5 mM MgCl2, 1 mM DTT, 1.6 U RNAse inhibitor (Promega N2515), 0.1 mg/ml BSA (Promega R3961), and 2% glycerol. All compounds were serially diluted (3-fold) in DMSO and diluted further in water such that the final concentration of DMSO in the assay was 2%. HCV RdRp genotype 1b enzyme was used at a final concentration of 28 nM. A polyA template was used at 6 nM, and a biotinylated oligo-dT12 primer was used at 180 nM final concentration. Template was obtained commercially (Amersham 27-4110). Biotinylated primer was prepared by Sigma Genosys. 3H-UTP was used at 0.6 μCi (0.29 μM total UTP). Reactions were initiated by the addition of enzyme, incubated at 30° C. for 60 min, and stopped by adding 25 μl of 50 mM EDTA containing SPA beads (4 μg/μl, Amersham RPNQ 0007). Plates were read on a Packard Top Count NXT after >1 hr incubation at room temperature.
Modified HCV NS5B RdRp enzyme assay. A modified enzyme assay was performed essentially as described for the standard enzyme assay except for the following: The biotinylated oligo dT12 primer was precaptured on streptavidin-coated SPA beads by mixing primer and beads in assay buffer and incubating at room temperature for one hour. Unbound primer was removed after centrifugation. The primer-bound beads were resuspended in 20 mM Hepes buffer, pH 7.5 and used in the assay at final concentrations of 20 nM primer and 0.67 μg/μl beads. Order of addition in the assay: enzyme (14 nM) was added to diluted compound followed by the addition of a mixture of template (0.2 nM), 3H-UTP (0.6 μCi, 0.29 μM), and primer-bound beads, to initiate the reaction; concentrations given are final. Reactions were allowed to proceed for 4 hours at 30° C.
IC50 values for compounds were determined using seven different [I]. […]

HCV replicon cells = experiment: HCV replicon assay (FRET or luciferase readout); assay type: cell-based; settings: Hepatitis C virus, Table 1
From the text: FRET Assay Preparation. To perform the HCV FRET screening assay, 96-well cell culture plates were used. The FRET peptide (Anaspec, Inc.) (Taliani et al., Anal. Biochem. 1996, 240, 60-67) contains a fluorescence donor, EDANS, near one end of the peptide and an acceptor, DABCYL, near the other end. The fluorescence of the peptide is quenched by […] resonance energy transfer (RET) between the donor and the acceptor, but as the NS3 protease cleaves the peptide the products are released from RET quenching and the fluorescence of the donor becomes apparent. The assay reagent was made as follows: 5× cell Luciferase cell culture lysis reagent from Promega (#E153A) diluted to 1× with dH2O, NaCl added to 150 mM final, the FRET peptide diluted to 20 μM final from a 2 mM stock.
To prepare plates, HCV replicon cells, with or without a Renilla luciferase reporter gene, were trypsinized and placed into each well of a 96-well plate with titrated test compounds added in columns 3 through 12; columns 1 and 2 contained a control compound (HCV protease inhibitor), and the bottom row contained cells without compound. The plates were then placed in a CO2 incubator at 37° C.
Assays. Subsequent to addition of the test compounds described above (FRET Assay Preparation), at various times the plate was removed and Alamar blue solution (Trek Diagnostics, #00-100) was added per well as a measure of cellular toxicity. After reading in a Cytoflour 4000 instrument (PE Biosystems), plates were rinsed with PBS and then used for FRET assay by the addition of 30 ul of the FRET peptide assay reagent described above (FRET Assay Preparation) per well. The plate was then placed into the Cytoflour 4000 instrument which had been set to 340 excite/490 emission, automatic mode for 20 cycles and the plate read in a kinetic mode. Typically, the signal to noise using an endpoint analysis after the reads was at least three-fold. Alternatively, after Alamar blue reading, plates were rinsed with PBS, 50 ul of DMEM (high glucose) without phenol red was added and plates were then used for luciferase assay using the Promega Dual-Glo Luciferase Assay System.
Compound analysis was determined by quantification of the relative HCV replicon inhibition and the relative cytotoxicity values. To calculate cytoxicity values, the average Alamar Blue fluorescence signals from the control wells were set as 100% non-toxic. The individual signals in each of the compound test wells were then divided by the average control signal and multiplied by 100% to determine […]. To calculate the HCV replicon inhibition values, an average background value was obtained from the two wells containing the highest amount of HCV protease inhibitor at the end of the assay period. These numbers were similar to those obtained from naïve Huh-7 cells.
The background numbers were then subtracted from the average signal obtained from the control wells and this number was used as 100% activity. The individual signals in each of the compound test wells were then divided by the averaged control values after background subtraction and multiplied by 100% to determine percent activity. EC50 values for a protease inhibitor titration were calculated as the concentration which caused a 50% reduction in FRET or luciferase activity. The two numbers generated for the compound plate, percent cytoxicity and percent activity were used to determine compounds of interest for further analysis.

T1 sequence (Q9WMX2 2420-2992): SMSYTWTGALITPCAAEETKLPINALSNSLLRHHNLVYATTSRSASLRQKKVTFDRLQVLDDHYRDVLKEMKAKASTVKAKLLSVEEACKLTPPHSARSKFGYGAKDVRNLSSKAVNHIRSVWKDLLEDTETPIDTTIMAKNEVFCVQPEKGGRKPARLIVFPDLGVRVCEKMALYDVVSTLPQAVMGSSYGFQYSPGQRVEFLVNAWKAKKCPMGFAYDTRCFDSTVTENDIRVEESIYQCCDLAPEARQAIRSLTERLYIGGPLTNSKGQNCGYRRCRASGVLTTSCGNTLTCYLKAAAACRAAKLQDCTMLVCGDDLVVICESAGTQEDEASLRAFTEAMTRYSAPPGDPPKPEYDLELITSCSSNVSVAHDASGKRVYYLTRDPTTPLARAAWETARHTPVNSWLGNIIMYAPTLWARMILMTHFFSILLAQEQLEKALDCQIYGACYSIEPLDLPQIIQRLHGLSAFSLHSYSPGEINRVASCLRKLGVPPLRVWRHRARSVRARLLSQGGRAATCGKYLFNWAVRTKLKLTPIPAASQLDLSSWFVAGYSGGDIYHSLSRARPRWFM

SMILES | IC50 [1] [µM] | EC50 (HCV replicon cells) [µM]
CNC(=O)c1c(-c2ccc(F)cc2)nn2ccc(OC)cc12 | > 10 | > 10
CNC(=O)c1c(-c2ccc(F)cc2)nn2ccc(-c3cccc(C(=O)NC(C)(C)C)c3)cc12 | 0.25 to 1 | 0.002 to 0.25
CCc1ccccc1-c1ccc2c(C(=O)NC)c(-c3ccccc3)nn2c1 | > 10 | > 10
CNC(=O)c1c(-c2ccccc2)nn2cc(-c3ccccc3OC)ccc12 | 1 to 10 | 1 to 10
CNC(=O)c1c(-c2ccccc2)nn2cc(-c3ccccc3CO)ccc12 | > 10 | > 10
CNC(=O)c1c(-c2ccccc2)nn2cc(N3CCCCS3(=O)=O)ccc12 | > 10 | > 10
CNC(=O)c1c(-c2ccc(F)cc2)nn2cc(NC(=O)C(C)(C)C)c(C3CC3)cc12 | > 10 | > 10
CNC(=O)c1c(-c2ccc(F)cc2)nn2cccc(NC(=O)OC(C)(C)C)c12 | > 10 | > 10
CNC(=O)c1c(-c2ccc(F)cc2)nn2cc(NC(=O)OC(C)(C)C)ccc12 | > 10 | > 10
CNC(=O)c1c(-c2ccc(F)cc2)nn2ccc(NC(=O)OC(C)(C)C)cc12 | > 10 | > 10
CNC(=O)c1c(-c2ccc(F)cc2)nn2cc(N)ccc12 | > 10 | > 10
CNC(=O)c1c(-c2ccc(F)cc2)nn2ccc(N)cc12 | > 10 | > 10
CNC(=O)c1c(-c2ccc(F)cc2)nn2cccc(N)c12 | > 10 | > 10
COC(=O)c1c(-c2ccccc2)nn2ccc(-c3cccc(C(=O)NC(C)(C)c4ccccc4)c3)cc12 | > 10 | > 10
CC(C)(NC(=O)c1cccc(-c2ccn3nc(-c4ccccc4)c(C(=O)O)c3c2)c1)c1ccccc1 | > 10 | > 10
CNC(=O)c1c(-c2ccc(F)cc2)nn2ccc(NS(=O)(=O)c3ccc(OC(F)(F)F)cc3)cc12 | > 10 | > 10
CNC(=O)c1c(-c2ccc(F)cc2)nn2cc(N(CCO)S(C)(=O)=O)ccc12 | > 10 | > 10
CNC(=O)c1c(-c2ccccc2)nn2ccc(-c3cccc(C(=O)NC(C)(C)c4ccccc4)c3)cc12 | 0.002 to 0.25 | 0.002 to 0.25
CNC(=O)c1c(-c2ccc(F)cc2)nn2cc(N(CCO)S(C)(=O)=O)c(-c3cccc(C(=O)NC(C)(C)c4ccccc4)c3)cc12 | 0.002 to 0.25 | 0.002 to 0.25
CNC(=O)c1c(-c2ccc(F)cc2)nn2cc(-c3cccc(OC)c3)ccc12 | > 10 | > 10
CNC(=O)c1c(-c2ccc(F)cc2)nn2cc(-c3ccc(OC)cc3)ccc12 | > 10 | > 10
CCOc1ccccc1-c1ccc2c(C(=O)NC)c(-c3ccc(F)cc3)nn2c1 | > 10 | > 10
CNC(=O)c1c(-c2ccc(F)cc2)nn2cc(NC(=O)C(F)(F)F)ccc12 | > 10 | > 10
CNC(=O)c1c(-c2ccc(F)cc2)nn2ccc(NS(=O)(=O)c3cccc(OC)c3)cc12 | > 10 | > 10
CNC(=O)c1c(-c2ccc(F)cc2)nn2ccc(NCc3ccccc3)cc12 | > 10 | > 10
CNC(=O)c1c(-c2ccc(F)cc2)nn2ccc(-c3cc(C(=O)NC4(c5ncccn5)CC4)c(OC)cc3C)c(F)c12 | 0.002 to 0.25 | 0.002 to 0.25
CNC(=O)c1c(-c2ccc(F)cc2)nn2ccc(-c3cc(C(=O)NC4(c5ncccn5)CC4)ccc3C)c(F)c12 | 0.002 to 0.25 | 0.002 to 0.25
CCN(c1cn2nc(-c3ccc(F)cc3)c(C(=O)NC)c2cc1-c1cccc(C(=O)NC2(c3ccccn3)CC2)c1)S(C)(=O)=O | 0.002 to 0.25 | 0.002 to 0.25
CNC(=O)c1c(-c2ccc(F)cc2)oc2ncc(-c3cc(C(=O)NC4(c5ncccn5)CC4)ccc3C)cc12 | 0.002 to 0.25 | 0.002 to 0.25
CNC(=O)c1c(-c2ccc(F)cc2)nn2ccc(-c3cc(C(=O)NC4(c5cc(C)on5)CC4)c(OC)cc3C)c(F)c12 | 0.002 to 0.25 | 0.002 to 0.25
